# Key:
# Assay in all cases: Temocillin MIC with EDTA in the medium (Example 2)
# Format in all cases: cell-based, Enterobacteriaceae
# [1] = tested on: AmpC strains; details: Ex 2, MIC in mg/l
# Text: (§1) Optimization of the Detection Specificity by Introducing Specific Inhibitors Inhibition of Class B Strains (NDM, VIM, IMP) by Adding EDTA
# (§2) Identical to that used to determine the temocillin MICs by agar dilution (example 1).
# (§3) For each temocillin concentration, the following concentrations of active EDTA will be tested in the form of disodium EDTA: 0, 1.77, 2.12, 2.47 and 2.83 mmol/l.
# (§4) Method: identical to the method used in example 1.
# [2] = tested on: BLSE strains; details: Ex 2, MIC in mg/l
# Text: as §1, §2, §3, §4
# [3] = tested on: IMP strains; details: Ex 2, MIC in mg/l
# Text: as §1, §2, §3, §4
# [4] = tested on: KPC strains; details: Ex 2; 0 mmol/l of EDTA; MIC in mg/l
# Text: as §1, §2, §3, §4
structure (smiles),measurement,setting,value
CO[C@@]1(NC(=O)C(C(=O)O)c2ccsc2)C(=O)N2[C@@H](C(=O)O)C(C)(C)S[C@@H]21 (stereo partly shown) [temocillin],No. of AmpC strains with MIC 150,[1]; 0 mmol/l of EDTA,0
same,No. of AmpC strains with MIC 200,[1]; 0 mmol/l of EDTA,0
same,No. of AmpC strains with MIC 300,[1]; 0 mmol/l of EDTA,0
same,No. of AmpC strains with MIC >300,[1]; 0 mmol/l of EDTA,0
same,No. of AmpC strains with MIC ≦50,[1]; 0 mmol/l of EDTA,10
same,No. of AmpC strains with MIC 150,[1]; 1.77 mmol/l of active EDTA,1
same,No. of AmpC strains with MIC 200,[1]; 1.77 mmol/l of active EDTA,0
same,No. of AmpC strains with MIC 300,[1]; 1.77 mmol/l of active EDTA,0
same,No. of AmpC strains with MIC >300,[1]; 1.77 mmol/l of active EDTA,0
same,No. of AmpC strains with MIC ≦50,[1]; 1.77 mmol/l of active EDTA,9
same,No. of AmpC strains with MIC 150,[1]; 2.12 mmol/l of active EDTA,1
same,No. of AmpC strains with MIC 200,[1]; 2.12 mmol/l of active EDTA,0
same,No. of AmpC strains with MIC 300,[1]; 2.12 mmol/l of active EDTA,0
same,No. of AmpC strains with MIC >300,[1]; 2.12 mmol/l of active EDTA,0
same,No. of AmpC strains with MIC ≦50,[1]; 2.12 mmol/l of active EDTA,9
same,No. of AmpC strains with MIC 150,[1]; 2.47 mmol/l of active EDTA,0
same,No. of AmpC strains with MIC 200,[1]; 2.47 mmol/l of active EDTA,0
same,No. of AmpC strains with MIC 300,[1]; 2.47 mmol/l of active EDTA,0
same,No. of AmpC strains with MIC >300,[1]; 2.47 mmol/l of active EDTA,0
same,No. of AmpC strains with MIC ≦50,[1]; 2.47 mmol/l of active EDTA,10
same,No. of AmpC strains with MIC 150,[1]; 2.83 mmol/l of active EDTA,0
same,No. of AmpC strains with MIC 200,[1]; 2.83 mmol/l of active EDTA,0
same,No. of AmpC strains with MIC 300,[1]; 2.83 mmol/l of active EDTA,0
same,No. of AmpC strains with MIC >300,[1]; 2.83 mmol/l of active EDTA,0
same,No. of AmpC strains with MIC ≦50,[1]; 2.83 mmol/l of active EDTA,10
same,No. of BLSE strains with MIC 150,[2]; 0 mmol/l of EDTA,0
same,No. of BLSE strains with MIC 200,[2]; 0 mmol/l of EDTA,0
same,No. of BLSE strains with MIC 300,[2]; 0 mmol/l of EDTA,0
same,No. of BLSE strains with MIC >300,[2]; 0 mmol/l of EDTA,0
same,No. of BLSE strains with MIC ≦50,[2]; 0 mmol/l of EDTA,10
same,No. of BLSE strains with MIC 150,[2]; 1.77 mmol/l of active EDTA,0
same,No. of BLSE strains with MIC 200,[2]; 1.77 mmol/l of active EDTA,0
same,No. of BLSE strains with MIC 300,[2]; 1.77 mmol/l of active EDTA,0
same,No. of BLSE strains with MIC >300,[2]; 1.77 mmol/l of active EDTA,0
same,No. of BLSE strains with MIC ≦50,[2]; 1.77 mmol/l of active EDTA,10
same,No. of BLSE strains with MIC 150,[2]; 2.12 mmol/l of active EDTA,1
same,No. of BLSE strains with MIC 200,[2]; 2.12 mmol/l of active EDTA,0
same,No. of BLSE strains with MIC 300,[2]; 2.12 mmol/l of active EDTA,0
same,No. of BLSE strains with MIC >300,[2]; 2.12 mmol/l of active EDTA,0
same,No. of BLSE strains with MIC ≦50,[2]; 2.12 mmol/l of active EDTA,9
same,No. of BLSE strains with MIC 150,[2]; 2.47 mmol/l of active EDTA,0
same,No. of BLSE strains with MIC 200,[2]; 2.47 mmol/l of active EDTA,0
same,No. of BLSE strains with MIC 300,[2]; 2.47 mmol/l of active EDTA,0
same,No. of BLSE strains with MIC >300,[2]; 2.47 mmol/l of active EDTA,0
same,No. of BLSE strains with MIC ≦50,[2]; 2.47 mmol/l of active EDTA,10
same,No. of BLSE strains with MIC 150,[2]; 2.83 mmol/l of active EDTA,0
same,No. of BLSE strains with MIC 200,[2]; 2.83 mmol/l of active EDTA,0
same,No. of BLSE strains with MIC 300,[2]; 2.83 mmol/l of active EDTA,0
same,No. of BLSE strains with MIC >300,[2]; 2.83 mmol/l of active EDTA,0
same,No. of BLSE strains with MIC ≦50,[2]; 2.83 mmol/l of active EDTA,10
same,No. of IMP strains with MIC 150,[3]; 0 mmol/l of EDTA,0
same,No. of IMP strains with MIC 200,[3]; 0 mmol/l of EDTA,0
same,No. of IMP strains with MIC 300,[3]; 0 mmol/l of EDTA,0
same,No. of IMP strains with MIC >300,[3]; 0 mmol/l of EDTA,1
same,No. of IMP strains with MIC ≦50,[3]; 0 mmol/l of EDTA,12
same,No. of IMP strains with MIC 150,[3]; 1.77 mmol/l of active EDTA,0
same,No. of IMP strains with MIC 200,[3]; 1.77 mmol/l of active EDTA,0
same,No. of IMP strains with MIC 300,[3]; 1.77 mmol/l of active EDTA,0
same,No. of IMP strains with MIC >300,[3]; 1.77 mmol/l of active EDTA,1
same,No. of IMP strains with MIC ≦50,[3]; 1.77 mmol/l of active EDTA,12
same,No. of IMP strains with MIC 150,[3]; 2.12 mmol/l of active EDTA,0
same,No. of IMP strains with MIC 200,[3]; 2.12 mmol/l of active EDTA,0
same,No. of IMP strains with MIC 300,[3]; 2.12 mmol/l of active EDTA,0
same,No. of IMP strains with MIC >300,[3]; 2.12 mmol/l of active EDTA,1
same,No. of IMP strains with MIC ≦50,[3]; 2.12 mmol/l of active EDTA,12
same,No. of IMP strains with MIC 150,[3]; 2.47 mmol/l of active EDTA,0
same,No. of IMP strains with MIC 200,[3]; 2.47 mmol/l of active EDTA,0
same,No. of IMP strains with MIC 300,[3]; 2.47 mmol/l of active EDTA,0
same,No. of IMP strains with MIC >300,[3]; 2.47 mmol/l of active EDTA,1
same,No. of IMP strains with MIC ≦50,[3]; 2.47 mmol/l of active EDTA,12
same,No. of IMP strains with MIC 150,[3]; 2.83 mmol/l of active EDTA,0
same,No. of IMP strains with MIC 200,[3]; 2.83 mmol/l of active EDTA,0
same,No. of IMP strains with MIC 300,[3]; 2.83 mmol/l of active EDTA,0
same,No. of IMP strains with MIC >300,[3]; 2.83 mmol/l of active EDTA,1
same,No. of IMP strains with MIC ≦50,[3]; 2.83 mmol/l of active EDTA,12
same,No. of KPC strains with MIC 150,[4],0
